Read-outs that look alike come from different tables or passages of the source. Starred links: 1 amine or outer side, 2 acyl side, 3 side chain; linkers in the order of their positions; H or OH if unused. Non-standard residues stand in square brackets, D forms with d. Residues, ends and D or L forms follow the SMILES beside them. Groups on a side chain read outwards from the residue. No end group written: not given here. *: point of attachment. C20 diacid = O=C(O)CCCCCCCCCCCCCCCCCCC(=O)*; γGlu = O=C(O)[C@H](CCC(=O)[*:2])N[*:1]; αMeL = CC(C)C[C@](C)(N)C(=O)O; αMeK = C[C@](N)(CCCCN)C(=O)O; αMeS = C[C@](N)(CO)C(=O)O; AEEA = NCCOCCOCC(=O)O; αS = not defined here; Aib = CC(C)(N)C(=O)O
T1: human GIPR (Homo sapiens, UniProt P48546)
T1 construct: expressed in transfected cells; host or cells: CHO-K1 clonal cell line
T1 sequence (P48546 22-466): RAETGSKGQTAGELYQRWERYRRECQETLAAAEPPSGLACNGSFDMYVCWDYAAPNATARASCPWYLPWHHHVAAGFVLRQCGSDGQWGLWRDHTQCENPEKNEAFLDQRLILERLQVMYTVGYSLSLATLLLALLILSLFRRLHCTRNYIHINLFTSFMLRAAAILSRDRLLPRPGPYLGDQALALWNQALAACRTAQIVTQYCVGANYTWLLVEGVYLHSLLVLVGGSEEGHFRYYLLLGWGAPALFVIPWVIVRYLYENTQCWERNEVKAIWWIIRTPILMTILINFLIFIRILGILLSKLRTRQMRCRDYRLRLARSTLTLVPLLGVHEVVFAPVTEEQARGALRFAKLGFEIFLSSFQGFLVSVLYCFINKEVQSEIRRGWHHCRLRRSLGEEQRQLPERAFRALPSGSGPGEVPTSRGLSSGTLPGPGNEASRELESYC

T2: human glucose-dependent insulinotropic polypeptide receptor (human, UniProt P48546 22-466)
T2 sequence (looked up): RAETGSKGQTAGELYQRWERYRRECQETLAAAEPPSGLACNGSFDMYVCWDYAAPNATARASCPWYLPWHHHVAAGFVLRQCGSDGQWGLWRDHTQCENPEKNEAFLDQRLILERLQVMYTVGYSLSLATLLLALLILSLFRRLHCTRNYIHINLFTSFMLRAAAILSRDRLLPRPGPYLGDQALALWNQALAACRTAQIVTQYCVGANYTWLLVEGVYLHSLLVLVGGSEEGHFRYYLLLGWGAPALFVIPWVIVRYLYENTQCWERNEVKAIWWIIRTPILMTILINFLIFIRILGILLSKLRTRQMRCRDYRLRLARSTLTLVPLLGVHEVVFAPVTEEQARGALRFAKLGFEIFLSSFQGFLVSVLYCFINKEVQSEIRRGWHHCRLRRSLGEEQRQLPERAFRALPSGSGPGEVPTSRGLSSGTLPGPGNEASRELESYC


What was measured:
[1] = molecular target: T1, human GIPR; experiment: cAMP HTRF agonist activity assay in CHO-K1 cells expressing GIPR; assay type: cell-based
Outline: (§1)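 Clonal CHO-K1 lines, 5000 cells/well, exposed to polypeptides for 30 min at 37°C. Intracellular cAMP read by HTRF (cAMP-d2 conjugate plus anti-cAMP-Eu cryptate in lysis buffer). Relative EC50 from four-parameter nonlinear fit of percent maximum response against concentration.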

[2] = Pharmacokinetics in mice after single intravenous injection; parameters: species or system C57 mice; settings: mouse, in vivo, male C57 mice, single intravenous dose 200 nmol/kg, plasma; for clearance: read-out: CLp; for half-life: read-out: T1/2 (converted)
Outline: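 Male C57 mice (~25 g, 4-6 weeks, n=3) received a single i.v. dose of 200 nmol/kg in 1×PBS. Plasma collected from 5 min to 72 h was methanol-precipitated with verapamil internal standard and quantified by LC-MS (ESI positive, MRM); PK parameters were calculated by PKSolver.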

[3] = Solubility in the vehicle; assay type: physicochemical; settings: stated in the summary only, no test example
[4] = molecular target: T3, human GLP-1R (Homo sapiens, UniProt P43220); experiment: cAMP HTRF agonist activity assay in CHO-K1 cells expressing GLP-1R; assay type: cell-based
T3 construct: expressed in transfected cells; host or cells: CHO-K1 clonal cell line
T3 sequence (P43220 24-463): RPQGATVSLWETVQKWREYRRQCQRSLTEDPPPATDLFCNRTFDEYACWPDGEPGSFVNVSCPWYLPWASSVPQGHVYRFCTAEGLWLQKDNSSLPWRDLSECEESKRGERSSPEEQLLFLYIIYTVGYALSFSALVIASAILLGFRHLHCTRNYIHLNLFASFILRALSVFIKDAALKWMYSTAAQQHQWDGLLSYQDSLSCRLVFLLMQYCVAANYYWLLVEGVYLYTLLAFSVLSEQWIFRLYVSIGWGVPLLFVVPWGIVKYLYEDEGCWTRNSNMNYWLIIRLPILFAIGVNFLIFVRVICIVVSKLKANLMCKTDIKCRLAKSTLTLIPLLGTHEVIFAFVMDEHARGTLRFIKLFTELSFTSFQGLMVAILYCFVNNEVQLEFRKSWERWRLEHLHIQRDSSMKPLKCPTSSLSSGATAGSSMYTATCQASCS
Outline: as §1

[5] = In vivo efficacy in diet-induced obesity (DIO) mouse model; parameters: species or system C57BL/6J mice; settings: 10 nmol/kg subcutaneous once daily for 24 days, indicating good safety
Text: In this example, a DIO mouse model established by high-fat diet induction was used to evaluate the effects on and improvement of obesity and diabetes-related indicators in DIO mice after subcutaneous injection of some of the compounds in the present disclosure.
4.1 Experimental methods: Obese male C57BL/6J mice (23-24 weeks old, obtained from Beijing Vital River Laboratory Animal Technology Co., Ltd.) induced by a high-fat diet were purchased. Six-week-old male C57BL/6J mice were fed a 60% high-fat diet (RD D12492) until their body weight reached 45-50g to obtain DIO model mice. After arriving at the facility and undergoing a week of acclimatization feeding, the animals were randomly divided into groups according to their body weight and administered vehicle (model group), LY3437943, Compound 15, Compound 16, Compound 17 and Compound 18 via subcutaneous injection in the neck. The compound was administered at a dose of 10 nmol/kg, and the frequency of administration was once daily via subcutaneous injection for 24 days. Each group contained 5 DIO mice. According to the experimental design, the body weight of each mouse was weighed and recorded daily at 3 pm or before administration, the average body weight of each group of mice was calculated, and a curve of body weight change over time was plotted. After the experiment, the fat and other organs of the mice were removed from various parts of the body, weighed, and recorded.

[6] = Physical stability of solution in the vehicle; assay type: physicochemical; settings: incubation at 25 degrees Celsius for 28 days; stated in the description, no method given
[7] = molecular target: human glucagon-like peptide-1 receptor (human, UniProt P43220 24-463); experiment: cell-based or functional assay
Chain of human glucagon-like peptide-1 receptor (P43220 24-463): as above

[8] = molecular target: T4, human glucagon receptor (human, UniProt P47871 26-477); experiment: cell-based or functional assay
T4 sequence (P47871 26-477): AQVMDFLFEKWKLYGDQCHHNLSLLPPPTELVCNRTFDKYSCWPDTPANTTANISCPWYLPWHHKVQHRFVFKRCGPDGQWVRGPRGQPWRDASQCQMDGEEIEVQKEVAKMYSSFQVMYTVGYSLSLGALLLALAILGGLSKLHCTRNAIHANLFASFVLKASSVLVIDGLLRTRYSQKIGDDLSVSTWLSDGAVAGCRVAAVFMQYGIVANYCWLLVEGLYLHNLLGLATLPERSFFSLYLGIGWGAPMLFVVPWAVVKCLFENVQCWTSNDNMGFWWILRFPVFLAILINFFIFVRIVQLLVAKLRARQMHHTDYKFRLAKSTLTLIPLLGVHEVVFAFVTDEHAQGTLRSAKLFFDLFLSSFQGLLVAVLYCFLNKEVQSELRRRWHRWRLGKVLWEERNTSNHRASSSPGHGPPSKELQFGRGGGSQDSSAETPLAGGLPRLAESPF

[9] = molecular target: human glucose-dependent insulinotropic polypeptide receptor (human) (UniProt P48546); experiment: cell-based or functional assay
[10] = molecular target: T2, human glucose-dependent insulinotropic …; experiment: cell-based or functional assay
[11] = molecular target: T4, human glucagon receptor; experiment: cell-based or functional assay; remark: listed apart in the source

Molecule	EC50 [1] [nM]	AUC(0-inf) [2] [µM·h]	C0 [2] [µM]	clearance [2] [mL/h/kg]	half-life [2] [h]	solubility in the vehicle [3] [mg/mL]	appearance of the solution in the vehicle [6]	also measured
CC[C@H](C)[C@H](NC(=O)[C@H](CC(C)C)NC(=O)[C@H](Cc1c[nH]c2ccccc12)NC(=O)[C@H](CCC(=O)O)NC(=O)[C@@H](NC(=O)[C@H](Cc1ccccc1)NC(=O)[C@H](CCC(=O)O)NC(=O)[C@](C)(CO)NC(=O)[C@H](C)NC(=O)[C@H](C)NC(=O)[C@H](CCCCN)NC(=O)[C@H](CCCCNC(=O)COCCOCCNC(=O)COCCOCCNC(=O)CC[C@H](NC(=O)CCCCCCCCCCCCCCCCCCC(=O)O)C(=O)O)NC(=O)[C@H](CCC(=O)O)NC(=O)[C@H](CC(C)C)NC(=O)[C@H](CC(C)C)NC(=O)[C@](C)(CCCCN)NC(=O)[C@H](CO)NC(=O)[C@H](Cc1ccc(O)cc1)NC(=O)[C@H](CC(=O)O)NC(=O)[C@H](CO)NC(=O)[C@@H](NC(=O)[C@H](Cc1ccccc1)NC(=O)[C@@H](NC(=O)CNC(=O)[C@H](Cc1c[nH]cn1)NC(=O)C(C)(C)NC(=O)[C@@H](N)Cc1c[nH]cn1)[C@@H](C)O)[C@@H](C)O)C(C)C)C(=O)N[C@@H](CCC(=O)O)C(=O)NCC(=O)NCC(=O)N1CCC[C@H]1C(=O)N[C@@H](CO)C(=O)N[C@@H](CO)C(=O)NCC(=O)N[C@@H](C)C(=O)N1CCC[C@H]1C(=O)N1CCC[C@H]1C(=O)N1CCC[C@H]1C(=O)N[C@@H](CO)C(N)=O [Compound 0126] (H-H[Aib]HGTFTSDYS[αMeK]LLEK([AEEA-AEEA-γGlu-C20 diacid])KAA[αMeS]EFVEWLIEGGPSSGAPPPS-NH2)	0.002	103	7.17	1.98	10.1	≥ 20	–	–
CC[C@H](C)[C@H](NC(=O)[C@H](CO)NC(=O)[C@H](Cc1ccc(O)cc1)NC(=O)[C@H](CC(=O)O)NC(=O)[C@H](CO)NC(=O)[C@@H](NC(=O)[C@H](Cc1ccccc1)NC(=O)[C@@H](NC(=O)CNC(=O)[C@H](Cc1c[nH]cn1)NC(=O)C(C)(C)NC(=O)[C@@H](N)Cc1c[nH]cn1)[C@@H](C)O)[C@@H](C)O)C(=O)N[C@@](C)(CC(C)C)C(=O)N[C@@H](CC(C)C)C(=O)N[C@@H](CCC(=O)O)C(=O)N[C@@H](CCCCNC(=O)COCCOCCNC(=O)COCCOCCNC(=O)CC[C@H](NC(=O)CCCCCCCCCCCCCCCCCCC(=O)O)C(=O)O)C(=O)N[C@@H](CCCCN)C(=O)N[C@@H](C)C(=O)N[C@@H](C)C(=O)N[C@@H](CCC(N)=O)C(=O)N[C@@H](CCC(=O)O)C(=O)N[C@@H](Cc1ccccc1)C(=O)N[C@H](C(=O)N[C@@H](CCC(=O)O)C(=O)N[C@@H](Cc1c[nH]c2ccccc12)C(=O)N[C@@H](CC(C)C)C(=O)N[C@@H](CC(C)C)C(=O)N[C@@H](C)C(=O)NCC(=O)NCC(=O)N1CCC[C@H]1C(=O)N[C@@H](CO)C(=O)N[C@@H](CO)C(=O)NCC(=O)N[C@@H](C)C(=O)N1CCC[C@H]1C(=O)N1CCC[C@H]1C(=O)N1CCC[C@H]1C(=O)N[C@@H](CO)C(N)=O)C(C)C [Compound 0125] (H-H[Aib]HGTFTSDYSI[αMeL]LEK([AEEA-AEEA-γGlu-C20 diacid])KAAQEFVEWLLAGGPSSGAPPPS-NH2)	0.002	96.1	5.79	2.1	14.6	≥ 20	–	EC50 [4]: 0.032 nM; final body weight relative to body weight of mice on a normal diet (Chow) [5]: ≥ 80%
H-Aib-HGTFTSDYSI-αL-LE-K(-OEG-OEG-γGlu-C(O)-(CH2)18-COOH)-KAAQEFVEWLLAGGPSSGAPPPS-NH2 (H[Aib]HGTFTSDYSI[αMeL]LEK([AEEA-AEEA-γGlu-C20 diacid])KAAQEFVEWLLAGGPSSGAPPPS-NH2; N-terminus assumed; SMILES CC[C@H](C)[C@H](NC(=O)[C@H](CO)NC(=O)[C@H](Cc1ccc(O)cc1)NC(=O)[C@H](CC(=O)O)NC(=O)[C@H](CO)NC(=O)[C@@H](NC(=O)[C@H](Cc1ccccc1)NC(=O)[C@@H](NC(=O)CNC(=O)[C@H](Cc1c[nH]cn1)NC(=O)C(C)(C)NC(=O)[C@@H](N)Cc1c[nH]cn1)[C@@H](C)O)[C@@H](C)O)C(=O)N[C@@](C)(CC(C)C)C(=O)N[C@@H](CC(C)C)C(=O)N[C@@H](CCC(=O)O)C(=O)N[C@@H](CCCCNC(=O)COCCOCCNC(=O)COCCOCCNC(=O)CC[C@H](NC(=O)CCCCCCCCCCCCCCCCCCC(=O)O)C(=O)O)C(=O)N[C@@H](CCCCN)C(=O)N[C@@H](C)C(=O)N[C@@H](C)C(=O)N[C@@H](CCC(N)=O)C(=O)N[C@@H](CCC(=O)O)C(=O)N[C@@H](Cc1ccccc1)C(=O)N[C@H](C(=O)N[C@@H](CCC(=O)O)C(=O)N[C@@H](Cc1c[nH]c2ccccc12)C(=O)N[C@@H](CC(C)C)C(=O)N[C@@H](CC(C)C)C(=O)N[C@@H](C)C(=O)NCC(=O)NCC(=O)N1CCC[C@H]1C(=O)N[C@@H](CO)C(=O)N[C@@H](CO)C(=O)NCC(=O)N[C@@H](C)C(=O)N1CCC[C@H]1C(=O)N1CCC[C@H]1C(=O)N1CCC[C@H]1C(=O)N[C@@H](CO)C(N)=O)C(C)C) [Compound 0125]	–	–	–	–	–	–	remains clear and transparent	–
H-Aib-HGTFTSDYS-αK-LLE-K(-OEG-OEG-γGlu-C(O)-(CH2)18-COOH)-KAA-αS-EFVEWLIEGGPSSGAPPPS-NH2 (H[Aib]HGTFTSDYS[αMeK]LLEK([AEEA-AEEA-γGlu-C20 diacid])KAA[αS]EFVEWLIEGGPSSGAPPPS-NH2; reading uncertain; also: printed as H-Aib-HGTFTSDYS-αK-LLE-K(-OEG-OEG-γGlu-C(O)-(CH2)18-COOH)-KAA-αS-EFVEWLIEGGPSSGAPPPS-NH2) [Compound 0126]	–	–	–	–	–	–	remains clear and transparent	–
LY3437943 (peptide)	–	–	–	–	–	–	–	Activity against human GLP-1R (EC50 nM) [7]: 0.08 nM; Activity against human GCGR (EC50 nM) [8]: 0.412 nM; Activity against human GIPR (EC50 nM) [9]: 0.002 nM
H[Aib]HGTFTSDYSI[αMeL]LEK([AEEA-AEEA-γGlu-C20 diacid])KAAQEFVEWLLAGGPSSGAPPPS-NH2 (N-terminus assumed; SMILES CC[C@H](C)[C@H](NC(=O)[C@H](CO)NC(=O)[C@H](Cc1ccc(O)cc1)NC(=O)[C@H](CC(=O)O)NC(=O)[C@H](CO)NC(=O)[C@@H](NC(=O)[C@H](Cc1ccccc1)NC(=O)[C@@H](NC(=O)CNC(=O)[C@H](Cc1c[nH]cn1)NC(=O)C(C)(C)NC(=O)[C@@H](N)Cc1c[nH]cn1)[C@@H](C)O)[C@@H](C)O)C(=O)N[C@@](C)(CC(C)C)C(=O)N[C@@H](CC(C)C)C(=O)N[C@@H](CCC(=O)O)C(=O)N[C@@H](CCCCNC(=O)COCCOCCNC(=O)COCCOCCNC(=O)CC[C@H](NC(=O)CCCCCCCCCCCCCCCCCCC(=O)O)C(=O)O)C(=O)N[C@@H](CCCCN)C(=O)N[C@@H](C)C(=O)N[C@@H](C)C(=O)N[C@@H](CCC(N)=O)C(=O)N[C@@H](CCC(=O)O)C(=O)N[C@@H](Cc1ccccc1)C(=O)N[C@H](C(=O)N[C@@H](CCC(=O)O)C(=O)N[C@@H](Cc1c[nH]c2ccccc12)C(=O)N[C@@H](CC(C)C)C(=O)N[C@@H](CC(C)C)C(=O)N[C@@H](C)C(=O)NCC(=O)NCC(=O)N1CCC[C@H]1C(=O)N[C@@H](CO)C(=O)N[C@@H](CO)C(=O)NCC(=O)N[C@@H](C)C(=O)N1CCC[C@H]1C(=O)N1CCC[C@H]1C(=O)N1CCC[C@H]1C(=O)N[C@@H](CO)C(N)=O)C(C)C) [Compound No. 0125]	–	–	–	–	–	–	–	Activity against human GIPR (EC50 nM) [10]: 0.002 nM; Activity against human GCGR (EC50 nM) [11]: 0.071 nM

— patent publication EP4745153A1, “GLP-1, GIP AND GCG RECEPTOR […] USE THEREOF” (Jiangsu Hengrui Pharmaceuticals Co., Ltd., priority 2023, dated 2025)
